From patent US6309874A, “Selection marker” (priority 1998, dated 2001)

How the values were obtained:
[1] = system: ouabain-sensitive (endogenous) Na+,K+-ATPase; experiment: Pilot studies, ouabain-sensitive enzyme population; assay type: biochemical
Method: (§1) Cells were lysed by treatment with 1 mM Tris-HCl pH 7.5 on ice for 15 min and a crude membrane fraction was prepared as described (Horiuchi, A., Takeyasu, K., Mouradian, M., Jose, P and Felder, R (1993) Mol. Phamiacol. 43, 281-285). The membrane fraction was frozer, in aliquots and stored over-night at -70° C.

[2] = system: cells transfected with mutant rat Na+,K+-ATPase a1; experiment: Cell survival in ouabain medium, mutant transfected cells
[3] = system: cells with mutated murine and human NKA alpha 1-subunit; conditions: read-out: IC50 for ouabain; cells with a mutation in murine and human NKA alpha 1-subunit, Cantley et al 1994; cited from earlier work
[4] = system: COS-7 cells expressing wild type Na+,K+-ATPase; experiment: Cell attachment on fibronectin, wild type transfected cells; assay type: cell-based, monkey; conditions: different concentrations of ouabain, 0 to 1.0 mM, FIG. 2
Method: (§2) Cell attachment on fibronectin coted substrates was assayed in microtiterwells (Costar). All wells were preincubated over night at 4° C. with 5 microg/ml concentration of fibronectin. Before adding cells, each well was preincubated with 1% BSA for 30 min in 37° C. and later washed with serum free DMEM. Untransfected COS-7 cells and COS-7 cells expressing wild type or L799C Na+,K+-ATPase were grown in a 3 microCi/ml H3-thymidine containing medium supplemented with 10% fetal calf serum and harvested after approximately 72 hours at 60-80% confluence. Approximately 25,000 cells /wells were seeded in serum free DMEM. Cells were first incubated 15 min with different concentrations of oubain and then allowed to attach to fibronectin (5 μg/ml) coated substrates during 30 min of incubation in 37° C. and later washed with serum free DMEM. Radioactivity was measured in a Wallac Scintillation counter. Results are presented as % remaining radioactivity compared to untreated.

[5] = biological target: T1, wild type rat Na+,K+-ATPase a1 subunit (Rattus norvegicus, UniProt P06685); experiment: Na+,K+-ATPase-dependent ATP hydrolysis, natural enzyme; assay type: biochemical
T1 construct: expressed in transfected cells; crude membrane fraction
Method: as §1

[6] = system: Na+,K+-ATPase; experiment: Pilot studies, total Na+,K+-ATPase of transfected cells; assay type: biochemical; conditions: 10^-5 M ouabain, 10 µM
Method: as §1

[7] = system: untransfected COS-7 cells; experiment: Cell attachment on fibronectin, untransfected cells; assay type: cell-based, monkey; conditions: different concentrations of ouabain, 0 to 1.0 mM, FIG. 2
Method: as §2

[8] = system: cells transfected with wild type rat Na+,K+-ATPase a1; experiment: Cell survival in ouabain medium, wild type transfected cells; conditions: 500 μM ouabain
[9] = system: COS-7 cells expressing L799C Na+,K+-ATPase; experiment: Cell attachment on fibronectin, L799C transfected cells; assay type: cell-based, monkey; conditions: different concentrations of ouabain, 0 to 1.0 mM, FIG. 2
Method: as §2

[10] = system: LLC-PK1 cells transfected with mutated (L799C and/or L801C) rat Na+,K+-ATPase alpha1 subunit; experiment: Survival study, transfected LLC-PK1 cells
[11] = biological target: T2, Leu799Cys (L799C) rat Na+,K+-ATPase a1 subunit (Rattus norvegicus, UniProt P06685, L800C); experiment: Na+,K+-ATPase-dependent ATP hydrolysis, mutated enzyme; assay type: biochemical
T2 construct: expressed in transfected cells; crude membrane fraction
Method: as §1

Structure (SMILES): C[C@@H]1O[C@@H](O[C@H]2C[C@@H](O)[C@]3(CO)[C@H]4[C@H](O)C[C@]5(C)[C@@H](C6=CC(=O)OC6)CC[C@]5(O)[C@@H]4CC[C@]3(O)C2)[C@H](O)[C@H](O)[C@H]1O [ouabain]
- ouabain concentration that completely inhibited the enzyme population [1]: 10^-5 M
- ouabain concentration survived by the cells [2]: at least 1×10^-3 M
- cell survival ([2]; longtime treatment with 500 μM ouabain): survived
- IC50 [3]: ~5 mM
- cell attachment to fibronectin coated substrates [4]: loss of attachment
- inhibition at 2000 µM [5]: 85 to 90%
- IC100 ([5]; read-out: ouabain concentration that completely inhibited the enzyme population, pilot studies, ouabain-insensitive (transfected) wild type enzyme): 5000 µM
- share of Na+,K+-ATPase resistant to ouabain [6]: Approximately 60%
- cell attachment to fibronectin coated substrates [7]: loss of attachment
- cell attachment to fibronectin coated substrates ([7]; listed as oubain): decreased dose dependent
- cell survival [8]: died and died within a few days
- cell attachment to fibronectin coated substrates [9]: no change in attachment
- growing and morphological characteristics of the cells ([10]; as high as 500×10^-6 M ouabain): did not seem to alter
- cell survival, multiplication and exterior ([10]; ouabain concentrations up to 500 μM): survive, multiply and keep their natural exterior
- inhibition of the enzyme ([11]; ouabain concentrations up to 2 mM): no significant inhibition
- activity at 2000 µM ([11]; read-out: (Na,K)-ATPase activity in percent in comparison with not treated): ~100%
